This is an account of results in patent US9604973B2, “Anti-cancer polyketide compounds” (priority 2012, dated 2017).

What all share (format): cell-based, human
Assay [1] deals with normal T lymphocytes from healthy donor. Nature of the assay: Flow cytometry, % specific induced apoptosis in normal T lymphocytes. The conditions noted are these: normal T cells from healthy donors, 100 nM, 48 hours. On the procedure: (§1) FIG. 21: FD-895 and PLAD induce apoptosis in CLL cells not ONLY independently of Tp53 but also independently of SF3B1 mutational status: Primary leukemia B cells from CLL patient with SF3B1 wild, SF3B1 mutation, 17p DEL and normal B and T lymphocytes from healthy donor were incubated with FD-895 and PLAD with 100 nM for 48 hours. After incubation, the samples were harvested and % SIA was measured by flow cytometry as described above. […] Each dots represents number of CLL patient sample and normal B or T cells.
(§2) Apoptotic and viable cells were discriminated via flow cytometry of cells stained with 3,3′ dihexyloxacarbocyanine iodide (DiOC6) (Molecular Probes, Eugene, Oreg., USA) and propidium iodine (Sigma, St Louis, Mo., USA), as described.^3 Using this method viable cells exclude PI and stain brightly positive for DiOC6.

For assay [2], the system named is CLL cells. Nature of the assay: Flow cytometry, % specific induced apoptosis (DiOC6/PI) in primary CLL cells. The conditions noted are these: 48 hours. Here is the method: FIG. 20A-20C: FD-895 and PLAD induce apoptosis in CLL cells but not in normal lymphocytes with a TP53 independent activity: Primary leukemia B cells from CLL (FIG. 20A) patient with del (17p) and Tp53 mutation, (FIG. 20B) patient with wild type p53 and sensitive to F-Ara-A and (FIG. 20C) normal lymphocytes from healthy donor were incubated with FD-895, PLAD and F-Ara-A (0, 10, 100, 1000 10,000 nM) for 48 hours.
as §1
Peripheral blood mononuclear cells (PBMC) from patients with CLL were obtained from the CLL Research Consortium (CRC) tissue bank. The blood samples were collected after obtaining a written informed consent from the patients under a protocol approved by the institutional review board of The University of California, San Diego. All patients met criteria for CLL.^1 CLL B cells and PBMCs were separated from heparinized venous blood of the B-CLL patients by density gradient centrifugation using Ficoll-Hypaque (GE healthcare) as described earlier.^2 The samples that were used had more than 95% positive cells for CD19 and CD5+, as assessed by flow cytometry. CLL B cells were maintained in RPMI 1640 medium supplemented with 10% FBS, 2 mM L-glutamine, and 100 U/mL of penicillin and 100 μg/mL of streptomycin at 37° C. in an atmosphere of 5% CO2.
as §2

The test system of assay [3] is DNAJB1. The assay is described as follows: Quantitative RT-PCR of unspliced mRNA in normal B cells. The conditions noted are these: 4 hours. On the procedure:
(§3) Quantitative RT-PCR using primers specific for each intron quantified unspliced mRNA for DNAJB1 (FIG. 25A) and RIOK3 (FIG. 25B). GAPDH was used for normalization. […] Error bars indicate S.D.
(§4) Normal B cells were purified from buffy coats of healthy volunteers, obtained from San Diego blood bank. Positive isolation with Dynabeads® CD19 pan B and DETACHaBEAD CD19 (Invitrogen Life Technologies, USA) were used to achieve more than 95% purity by flow cytometry analysis.
(§5) CLL cells were treated with 100 nM of FD-895 and PLAD and 10 μM of F-Ara-A for 15 minutes, 1 and 4 h. Normal B and CLL cells were treated with 10, 100, and 1000 nM of FD-895 and PLAD and 10 μM of F-Ara-A for 4 h.
(§6) Extraction of total RNA and cDNA synthesis were performed as described earlier. Unspliced mRNA was quantified using a 7900HT fast Real Time PCR System (Applied Biosystems). The amounts of unspliced mRNA of DNAJB1, and RIOK3 were determined by SYBR green (Power SYBR Green PCR Master Mix, Applied Biosystems) real-time quantitative RT-PCR using specific primers designed for the intron of each gene (see additional information section at the end).
(§7) PCR using 0.2 μM of each primer was performed on 20 ng of the obtained cDNA. PCR conditions were 50° C. for 2 min; 95° C. for 10 min; 35 cycles of 94° C. for 20 s, 55° C. for 20 s, followed by 72° C. for 30 s. The mRNA levels were calculated using 2^−ΔΔCT method.^4 GAPDH was used as a control for normalization.

In assay [4] the test system is RIOK3. Described as above. The conditions noted are these: 4 hours. Here is the method: as §3, §4, §5, §6, §7
Assay [5] relates to JURKAT. The assay is described as follows: Flow cytometry cell viability/% SIA in leukemia cell line. The conditions noted are these: 0-10,000 nM, 48 hours. Here is the method:
(§8) FIG. 22: Activity of FD-895, PLAD and F-Ara-A in different human leukemia cell lines: Different leukemia cell lines including MEC1, RAJI and JURKAT were incubated with FD-895, PLAD and F-Ara-A (0, 10, 100, 1000, 10,000 nM) for 48 hours. The samples were harvested and cell viability was measured by flow cytometry using propidium iodine (PI) exclusion and mitochondrial membrane potential changes using DiOC6. This experiments was performed 2 times independently.
(§9) The leukemia cell lines, MEC1, RAJI and JURKAT were maintained in CLL B cells were maintained in RPMI 1640 medium supplemented with 10% FBS, 2 mM L-glutamine, and 100 U/mL of penicillin and 100 μg/mL of streptomycin at 37° C. in an atmosphere of 5% CO2.
as §2
(§10) We further examined the activity of FD-895, PLAD and F-Ara-A in different leukemia cell lines like MEC1 (B chronic lymphocytic leukemia cell line), RAJI (B lymphocyte cell line), JURKAT (T lymphocyte cell line) as to know whether these compounds induce apoptosis or not. We incubated cells with FD-895, PLAD and F-Ara-A with 0, 10, 100, 1000 or 10,000 nM for 48 hours and measured the % SIA by using flow cytometry.

Assay [6] has as its system RAJI. The assay is described as above. The conditions noted are these: 0-10,000 nM, 48 hours. Here is the method:
as §8, §9, §2, §10

Assay [7] concerns MEC1. Described as above. The conditions noted are these: MEC1, 0-10,000 nM, 48 hours. Here is the method:
as §8, §9, §2, §10

Setting [8] is: CLL patients with 17p DEL, 100 nM.
Setting [9] is: CLL patients with SF3B1 mutation, 100 nM.
[10] abbreviates: CLL patients with SF3B1 wild, 100 nM.
Where [11] appears, read: CLL patients with Tp53 mutation (so in the source).
Setting [12] is: CLL patients with del (17p), 0-10,000 nM.

“Also recorded” adds a separate entry of the source.

As for `CCC(OC)C(C)C1OC1C(O)C(C)/C=C/C=C(\C)C1OC(=O)CC(O)CCC(C)(O)C(OC(C)=O)/C=C/C1C` (stereo not shown) [FD-895], the “apoptosis (% SIA)” value in assay [1] was “did not induce significant cell death; also recorded: did not show significant apoptosis”; in assay [2] (setting [8]) it was “significant cells death; also recorded: induced apoptosis”; in assay [2] (setting [9]), “significant cells death; also recorded: induced apoptosis”; in assay [2] (setting [10]) it was “significant cells death”; in assay [2] (setting [11]), “significant death”; in assay [2] (setting [12]), “significant killing”. Also, in assay [3], the “unspliced mRNA of DNAJB1” value is reported as “did not show significant increase in unspliced mRNA”. Moreover, in assay [4], the “unspliced mRNA of RIOK3” value is listed as “did not show significant increase in unspliced mRNA”. The “cell death (% SIA)” value in assay [5] is recorded as “high significant cell death”; in assay [6], “high significant cell death”; in assay [7], “did not show significant apoptosis”.

Consider Pladienolide B, for which the “apoptosis (% SIA)” value in assay [1] is “did not induce significant cell death; also recorded: did not show significant apoptosis”; in assay [2] (setting [8]), “significant cells death; also recorded: induced apoptosis”; in assay [2] (setting [9]), “significant cells death; also recorded: induced apoptosis”; in assay [2] (setting [10]), “significant cells death”; in assay [2] (setting [11]), “significant death”; in assay [2] (setting [12]), “significant killing”. Besides, the “unspliced mRNA of DNAJB1” value in assay [3] is recorded as “did not show significant increase in unspliced mRNA”. Moreover, in assay [4], the “unspliced mRNA of RIOK3” value was “did not show significant increase in unspliced mRNA”. Besides, the “cell death (% SIA)” value in assay [5] is on record as “high significant cell death”; in assay [6], “high significant cell death”; in assay [7] it was “did not show significant apoptosis”.
